In ChEMBL document CHEMBL6092186, “Semisynthetic Ecdysteroid Cinnamate Esters and tert-Butyl Oxime Ether Derivatives with Trypanocidal Activity” (J Nat Prod, 2024):
Calls of active or inactive are those of the source. The rule behind the calls is not given here.

How the values were obtained:
[1] = system: Trypanosoma; assay: Anti-trypanosomal activity against Trypanosoma; type: functional, organism-based
[2] = system: CHO; assay: Cytotoxicity against CHO cells at 5 uM incubated for 72 hrs by MTT assay; type: toxicity, cell-based, Cricetulus griseus; conditions: chinese hamster
[3] = system: Trypanosoma cruzi; assay: Anti-trypanosomal activity against Trypanosoma cruzi epimastigotes assessed as inhibition of parasitic proliferation at 5 uM incubated for 72 hrs by XTT assay relative to control; type: functional
[4] = system: Trypanosoma cruzi; assay: Trypanocidal activity against Trypanosoma cruzi epimastigotes incubated for 24 hrs by Neubauer chamber method; type: functional, organism-based

In the case of COc1ccc(/C=C/C(=O)O)c(OC)c1, the IC50 [1] is reported as greater than 600 µM.

For COc1cc(/C=C/C(=O)O)cc(OC)c1OC [SINAPIC ACID METHYL ETHER], the IC50 [1] was greater than 600 µM.

In the case of CC(C)(O)CC[C@H]1OC(C)(C)O[C@]1(C)[C@H]1CC[C@@]2(O)C3=C/C(=N\OC(C)(C)C)[C@@H]4C[C@H]5OC(C)(C)O[C@H]5C[C@]4(C)[C@H]3CC[C@]12C, the Activity [2] is reported as “Non-toxic”.

In the case of CC(C)(O)CC[C@@H](OC(=O)/C=C/c1ccccc1)[C@](C)(O)[C@H]1CC[C@@]2(O)C3=CC(=O)[C@@H]4C[C@@H](O)[C@@H](OC(=O)/C=C/c5ccccc5)C[C@]4(C)[C@H]3CC[C@]12C, the Activity [2] is reported as “Non-toxic”.

In the case of CC(C)(O)CC[C@@H](OC(=O)/C=C/c1ccccc1)[C@](C)(O)[C@H]1CC[C@@]2(O)C3=CC(=O)[C@@H]4C[C@@H](OC(=O)/C=C/c5ccccc5)[C@@H](O)C[C@]4(C)[C@H]3CC[C@]12C, the Activity [2] is reported as “Non-toxic”.

In the case of CC(C)(O)CC[C@@H](OC(=O)/C=C/c1ccccc1)[C@](C)(O)[C@H]1CC=C2C3=C/C(=N\OC(C)(C)C)[C@@H]4C[C@@H](OC(=O)/C=C/c5ccccc5)[C@@H](OC(=O)/C=C/c5ccccc5)C[C@]4(C)[C@H]3CC[C@@]21C, the inhibition at 5 µM [3] is reported as no less than 30%.

With CC(C)(O)CC[C@@H](O)[C@](C)(O)[C@H]1CC=C2C3=C/C(=N/OC(C)(C)C)[C@@H]4C[C@@H](O)[C@@H](O)C[C@]4(C)[C@H]3CC[C@@]21C the inhibition [3] was “inactive”.

CC(C)(O)CC[C@@H](O)[C@](C)(O)[C@H]1CC=C2C3=C/C(=N/OC(C)(C)C)[C@@H]4C[C@@H](O)[C@@H](OC(=O)/C=C/c5ccccc5)C[C@]4(C)[C@H]3CC[C@@]21C gave an inhibition at 5 µM [3] of no less than 30%.

Compound COc1ccc(/C=C/C(=O)O)cc1 [4-METHOXYCINNAMIC ACID] has an IC50 [1] greater than 600 µM.

In the case of CC(C)(O)CC[C@@H](O)[C@](C)(O)[C@H]1CC=C2C3=C/C(=N\OC(C)(C)C)[C@@H]4C[C@@H](O)[C@@H](OC(=O)/C=C/c5ccccc5)C[C@]4(C)[C@H]3CC[C@@]21C, the inhibition at 5 µM [3] is reported as no less than 30%.

With CC(C)(O)CC[C@H]1OC(C)(C)O[C@]1(C)[C@H]1CC=C2C3=C/C(=N/OC(C)(C)C)[C@@H]4C[C@H]5OC(C)(C)O[C@H]5C[C@]4(C)[C@H]3CC[C@@]21C the Activity [2] was “Non-toxic”.

With CC(C)(O)CC[C@@H](OC(=O)/C=C/c1ccccc1)[C@](C)(O)[C@H]1CC=C2C3=C/C(=N\OC(C)(C)C)[C@@H]4C[C@@H](O)[C@@H](OC(=O)/C=C/c5ccccc5)C[C@]4(C)[C@H]3CC[C@@]21C the inhibition at 5 µM [3] was no less than 30%.

In the case of CCCCCOC(=O)/C=C/c1ccc(O)cc1, the IC50 [4] is reported as roughly 5 µM.

With CC(C)(O)CC[C@@H](O)[C@](C)(O)[C@H]1CC=C2C3=C/C(=N\OC(C)(C)C)[C@@H]4C[C@@H](O)[C@@H](O)C[C@]4(C)[C@H]3CC[C@@]21C the inhibition [3] was “inactive”.
